Experimental data reported in US8247352B2, “Method of inhibiting ethylene production in plants” (The Regents of the University of California, priority 2005, dated 2012).
Where “and” joins values, the source holds several entries; their conditions need not be identical. Identical values can stand only once.

Tests used:
ACC Oxidase = molecular target: T1, ACC Oxidase (Solanum lycopersicum, UniProt P05116); assay: Stoichiometry of O2 consumed to product formed (CO2 or ethylene), extent of uncoupling; type: biochemical, Lycopersicon esculentum; details: for Ratio O2 consumed to product formed, O2:CO2 / Ratio O2 consumed to product formed, O2:ethylene: saturating substrate, 30 mM ascorbate, ambient O2; for Ratio O2 consumed to product formed, O2:CO2: [14C]-CO2 trapping; for Ratio O2 consumed to product formed, O2:ethylene: ethylene by GC-FID
T1 construct: made in house; host or cells: Escherichia coli BL21 (DE3)pLysS
Procedure: Oxygen consumption was measured using a YSI model 5300 biological oxygen monitor as described above. Reactions contained D-[1-^14C]-Ala, [carboxyl-^14C]-ACC, α-[1-^14C]-AIB, or [1-^14C]-Gly in trace amounts. […] Reactions (1 mL) were initiated with a pre-incubated mixture of ACCO:Fe(II) in a 2:1 ratio. This was done to minimize free Fe(II) in solution. Final concentrations were typically 10 μM ACCO and 5 μM Fe(II). Reactions were quenched by addition of 3 μL of 0.1 M 3-[2-Pyridyl]-5,6-diphenyl-1,2,4-triazine-4,4′-disulfonic acid (FERROZINE®) and the O2 consumption rate was allowed to stabilize. The reaction (0.8 mL) was removed with a gas-tight syringe and injected into a small vial containing 0.1 mL 10% HCl that was inside a larger vial containing the CO2 trap (see above). The acidified reaction mixture and the CO2 trap were stirred for 2 h, and radioactivity from [^14C]—CO2 was determined as described above. Controls measuring the efficiency of the CO2 trap were done by injecting a known amount of [^14C]—NaHCO3 into the vial containing acid, as above, and measuring the amount of [^14C]—CO2 recovered. Efficiency of trapping was routinely ˜98%.
O2 consumption was measured using an Ocean Optics FOXY fiber optic oxygen sensor, with the fiber optic probe inserted through a syringe into an airtight septum, thus preventing ethylene escape. […] ACCO:Fe(II) (final concentrations 10 μM ACCO and 5 μM Fe(II)) was injected by syringe into a ½ dram vial covered with a septum with no headspace. The reaction was quenched as described above. A 10 mL syringe filled with air was used to transfer the reaction mixture to a 10 mL test tube covered with a septum using a cannula. The test tube was stirred vigorously for at least 4 hours before ethylene analysis. Ethylene was measured by injecting 2 mL of the headspace onto a GC equipped with a RT-Alumina GC column (final sample size was 250 μL). Ethylene was separated using ultrapure helium (grade 5) as the carrier gas at 40° C. detected by flame ionization (FID). The data were collected and the peak area was determined. Calibration for ethylene was done with Scotty IV mix 3 hydrocarbon standard (Scotty Specialty Gases). The ppm of ethylene was converted to nanomoles of ethylene per unit volume using the ideal gas law. Dilution of ethylene during sampling was taken into account in the calculations.
The extent of uncoupling for ACCO with both cyclic and acyclic substrate analogs was determined by comparing the amount of O2 consumed and product, either ethylene or CO2, formed. All reactions were carried out at saturating substrate and ascorbate concentrations to minimize potential O2 reaction in the absence of substrate. […] O2 measurements were quenched during or just as the linear phase of the reaction began to fall off due to either loss of Fe(II) from the enzyme or possible enzyme inactivation. The results distinguish between amounts of uncoupling.
For cyclic substrate analogs and ACC, the stoichiometry was determined by comparing O2 consumption with ethylene formation by GC-FID. […] The stoichiometry of O2 consumed to ethylene produced for ACC was 1.44 and to CO2 produced was 1.18, which is identical to that reported by Dong, et. al (Dong et al., 1992).

ACCO:Fe(II) = molecular target: T2, ACCO:Fe(II) (Solanum lycopersicum, UniProt P05116); assay: Ethylene trapping assay: substrate turnover by ACCO:Fe(II), ethylene trapped as dibromoethane, GC-MS; type: biochemical, Lycopersicon esculentum; details: for Amount of ethylene formed during the reaction time relative to reaction with ACC: 1 hr incubation with ACCO:Fe(II); for Ethylene produced relative to predicted ethylene during the reaction time course: prediction from kcat
T2 construct: made in house; host or cells: Escherichia coli BL21 (DE3)pLysS
Procedure: For detection of CO2, trace radiolabeled compound was used as appropriate. A small vial containing the reaction mixture minus enzyme was placed along side of another small vial containing the ethylene or CO2 trap. Both vials were placed in a large vial, which was capped with a septum. ACCO:Fe(II) was introduced into the reaction vial with a syringe and both the reaction vial and trap vial were stirred for 1 h. For [^14C]—CO2 trapping, a 1 mL solution of freshly prepared 10 M NaOH was used as the trapping agent. At the end of the reaction, the trap was removed and added to 15 mL scintillation fluid (Hionic-Fluor, Perkin Elmer) and radioactivity determined by scintillation counting. For ethylene, a […] solution of Br2 in CCl4 was used as the trap. A small amount of 2,5-dibromohexane was added to the trap as an internal standard. At the completion of the reaction, a small excess of 2,3-dimethyl-2-butene was added to the trap to quench unreacted Br2, and the trap was analyzed by GC-MS. Dibromoethane purchased from Aldrich was used as a standard.
The ability of ACCO to turnover ACC or the cyclic substrate analogs (MeACC, ACC-NH2, or ACC-OMe) was determined by the formation of ethylene. Each substrate analog or ACC was incubated for 1 hr with ACCO:Fe(II) in a closed reaction vial containing an ethylene trap that would convert ethylene to dibromoethane. At the end of the reaction time, the ethylene trap was quenched and analyzed for dibromoethane by GC-MS. Reactions with BSA/Fe(II) were used as a control for non-enzymatic ethylene formation. The formation of ethylene was detected in the reaction vials of ACC and all the cyclic analogs in the presence of ACCO:Fe(II). No ethylene was detected in any of the BSA/Fe(II) reactions. The amount of ethylene formed during the reaction time from the cyclic analogs was lower than that from the reaction with ACC (MeACC=14%, ACCNH2=13%, ACC-OMe=79%). If the rates of O2 consumption for the reactions with the different substrates are considered, the kcat for ACC-OMe is approximately 75% of that for ACC, which would be consistent with the amount of ethylene produced during the time course of the reaction. […] Although the purity of both MeACC and ACCNH2 by elemental analysis was determined >95%, it is possible that a small amount of contaminating ACC could be responsible for the ethylene formed in these reactions. To determine whether ethylene was being formed from the substrate analog and not from contaminating ACC, reactions with each analog were done in the presence of increasing concentration of ACCO:Fe(II). In the case of a small amount of contamination where the ACC would be quickly depleted during the reaction, the result would be a non-linear dependence of ethylene production with increasing ACCO concentration.

ACC Oxidase (ACCO, ACO1) = molecular target: T3, ACC Oxidase (ACCO, ACO1) (Solanum lycopersicum, UniProt P05116); assay: Initial velocity assays (rate of oxygen consumption) with ACC or substrate analogs; type: biochemical, Lycopersicon esculentum; details: for Km compared to ACC (in words) / Km increased by factor compared with ACC / Rate of O2 consumption by ACCO compared with ACC (in words): from Table 1; for Km / Vmax: O2 consumption, 25° C., pH 7.2, [Ascorbate] = 30 mM, [O2] = 258 μM, [CO2/bicarbonate] = 20 mM
T3 construct: made in house; host or cells: Escherichia coli BL21 (DE3)pLysS
Procedure: ACCO from Lycopersicon esculentum (ACO1) was produced in Escherichia coli strain BL21 (DE3)pLysS and purified by a two-column purification procedure as previously described (Thrower, J. S. et al., 2001).
Initial velocities were measured by the rate of oxygen consumption at 25° C., pH 7.2, using a YSI model 5300 biological oxygen monitor as previously described (Thrower 2001) with minor modifications. Standard reaction mixture (1 ml) contained 100 mM MOPS, pH 7.2, 20 mM NaHCO3, 100 mM NaCl, 20 mM sodium ascorbate, 0.1 mg/ml BSA, and ACC or substrate analog at various concentrations. Oxygen concentrations were kept at atmospheric concentration and determined using the oxygen monitor that was calibrated with air saturated water (258 μM oxygen at 25° C.). Reactions were initiated with 2 μL ACCO reconstituted with equimolar Fe(NH4)2(SO4)2. Data from initial velocity experiments with varying substrate concentrations were fitted to the Michaelis-Menton equation using the program Kalideograph.
Either cyclic substrate analogs (including inhibitor Me-ACC, ACC-NH2, or ACC-OMe) or acyclic substrate analogs (AIB, D-Ala, or Gly) were used. […] Ascorbate and oxygen concentrations were kept constant at 30 mM and ˜258 μM, respectively.

ACCO = molecular target: T4, ACCO (Solanum lycopersicum, UniProt P05116); assay: Labeling of ACCO by radiolabeled N-Me-ACC (centrifugal filtration, scintillation counting); type: binding, Lycopersicon esculentum; details: approximately equal concentrations, standard reaction conditions, quenched with Ferrozine
T4 construct: made in house; host or cells: Escherichia coli BL21 (DE3)pLysS
Procedure: Radiolabeled N-Me-ACC was incubated with ACCO (approximately equal concentrations) in standard reaction conditions. The reaction was quenched using Ferrozine. The solution was placed in a Millipore 10K NMWL Ultrafree®-MC Centrifugal Filter Unit and centrifuged for 15 min. at 14K rpm. The remaining protein (˜20 μL) was washed with 3×1 mL of either water, reaction buffer, or 0.1% TFA by repeated centrifugation. The protein was collected and radioactivity determined by scintillation counting in 12 mL EcoLite^+ scintillation fluid.

T2 sequence (P05116 whole entry): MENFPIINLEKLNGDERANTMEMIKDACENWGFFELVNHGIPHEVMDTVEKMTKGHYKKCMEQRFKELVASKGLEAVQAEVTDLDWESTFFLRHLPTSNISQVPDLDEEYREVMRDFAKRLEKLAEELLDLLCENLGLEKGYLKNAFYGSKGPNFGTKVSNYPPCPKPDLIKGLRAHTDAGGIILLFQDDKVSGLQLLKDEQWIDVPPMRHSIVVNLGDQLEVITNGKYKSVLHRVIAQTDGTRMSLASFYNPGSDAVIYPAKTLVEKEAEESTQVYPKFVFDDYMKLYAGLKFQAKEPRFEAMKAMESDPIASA
T3 sequence (P05116 whole entry): as above
T1 sequence (P05116 whole entry): as above
T4 sequence (P05116 whole entry): as above

SMILES	Products detected (ACC Oxidase)	Ratio O2 consumed to product formed, O2:CO2 (ACC Oxidase)	Ratio O2 consumed to product formed, O2:ethylene (ACC Oxidase)	Amount of ethylene formed during the reaction time relative to reaction with ACC (ACCO:Fe(II)) [%]	Ethylene produced relative to predicted ethylene during the reaction time course (ACCO:Fe(II))	Km compared to ACC (in words) (ACC Oxidase (ACCO, ACO1))	kcat slower than the kcat for ACC (ACC Oxidase (ACCO, ACO1); from rates of O2 consumption) [%]	Km (ACC Oxidase (ACCO, ACO1)) [µM]	Vmax (ACC Oxidase (ACCO, ACO1)) [min⁻¹]	Km increased by factor compared with ACC (ACC Oxidase (ACCO, ACO1)) [fold]	kcat as percent of that for ACC (ACC Oxidase (ACCO, ACO1); from rates of O2 consumption)	Rate of O2 consumption by ACCO compared with ACC (in words) (ACC Oxidase (ACCO, ACO1))	Labeling of ACCO by radiolabeled compound (ACCO)
NC1(C(=O)O)CC1 [ACC, 1-aminocyclopropane-1-carboxylic acid, reference compound]	Ethylene, CO2	1.18 and 1.2 and 1.18 ± 0.17	1.44 and 1.44 ± 0.22	–	–	–	–	–	–	–	–	–	–
NC(=O)C1(N)CC1 [ACC-NH2]	Ethylene	–	4.40 ± 1.56	13	about half the predicted ethylene	not significantly altered	~30	–	–	–	–	–	–
COC(=O)C1(N)CC1 [ACC-OMe]	Ethylene	–	1.81 ± 0.72	79	–	–	–	2760 ± 550	27.3 ± 1.7	~28	approximately 75%	–	–
CC(C)(N)C(=O)O [AIB, α-aminoisobutyric acid]	Acetone, CO2	1.7 and 1.68 ± 0.12	–	–	–	–	–	–	–	9.3	–	comparable	–
C[C@@H](N)C(=O)O [D-Alanine, D-alanine]	Acetaldehyde, CO2	3.46 ± 0.51	–	–	–	–	–	–	–	44.7	–	comparable	–
NCC(=O)O [Glycine, glycine]	CO2	–	–	–	–	–	–	–	–	–	–	–	–
CNC1(C(=O)O)CC1 [N-Me-ACC]	Ethylene	–	3.17 ± 0.86	14	about half the predicted ethylene	not significantly altered	~30	107 ± 21	12.2 ± 0.5	–	–	–	irreversibly labels ACCO in a short period of time
